Test results taken from patent US7884118B2, “1-cycloalkyl-5-iodotetrazoles” (LANXESS Deutschland GmbH, priority 2005, dated 2011).

What was measured:
Aspergillus niger = test: Minimum inhibitory concentration (MIC) against fungi, malt extract agar; assay type: cell-based; conditions: 336 h, 2 weeks at 28° C., 60 to 70% relative atmospheric humidity, read-out: Minimum inhibitory concentrations Aspergillus niger
Experimental: (§1) In each case, the active compounds according to the invention, in concentrations of from 0.1 mg/l to 5000 mg/l, were added to an agar which had been prepared using malt extracts. The MIC was determined after 2 weeks of storage at 28° C. and 60 to 70% relative atmospheric humidity. The MIC is the lowest concentration of active compound at which there is no colonization by the microbial species used.

Chaetomium globosum = test: as above; assay type: cell-based; conditions: 336 h, 2 weeks at 28° C., 60 to 70% relative atmospheric humidity, read-out: Minimum inhibitory concentrations Chaetomium globosum
Experimental: as §1

Penicillium brevicaule = test: as above; assay type: cell-based; conditions: 336 h, 2 weeks at 28° C., 60 to 70% relative atmospheric humidity, read-out: Minimum inhibitory concentrations Penicillium brevicaule
Experimental: as §1

Ic1nnnn1C1CCCC1 [Example 1, 1-Cyclopentyl-5-iodotetrazole]
MIC (Aspergillus niger): < 20 µg/mL
MIC (Chaetomium globosum): < 20 µg/mL
MIC (Penicillium brevicaule): < 20 µg/mL
melting point: 119 °C
